Values quoted from earlier work, collected in US20190100806A1, “MARKER FOR PREDICTING TREATMENT RESPONSE TO ANTI-CANCER AGENT IN SOLID CANCER PATIENTS” (DAEWOONG PHARMACEUTICAL CO., LTD., priority 2016, published 2019).

Columns and labels:
[1] = system: PC-3 (human prostate cancer) cells; conditions: PC-3 cells, PTEN-deficient; read-out: median effective concentration (EC50)
[2] = system: HCC70 (human breast ductal carcinoma) cells; conditions: PTEN-deficient, read-out: median effective concentration (EC50)
[3] = system: Akt phosphorylation (Ser473); conditions: single dose, mouse model xenografted with PC-3 cells
[4] = system: RAC serine/threonine-protein kinase (Akt) phosphorylation; conditions: mouse models xenografted with human PTEN-deficient tumor cells

EC50 [1]: 36 nM
Structure (SMILES): Cc1c(Cn2c(C)nc3c(C(=O)O)cc(N4CCOCC4)cc32)cccc1C(F)(F)F [GSK-2636771]
EC50 [2]: 72 nM
Akt phosphorylation (Ser473) [3]: reduce Akt phosphorylation (Ser473)
phosphorylation of Akt [4]: inhibits the phosphorylation of RAC serine/threonine-protein kinase (Akt) in a dose-dependent manner
